In patent publication US8367720B2 (Panorama Research Inc., priority 2007, dated 2013):
Where two headings read alike, the source gives them in different places.

What was measured:
L1210 leukemia cells = assay: In vitro antitumor activity to L1210 leukemia cells (MTT); type: cell-based; conditions: for IC50: Mus musculus
Experimental: The cells were cultured in an incubator at 37° C., 5% CO2 and saturated humidity for 48 h. Then 5 mg/mL MTT (20 μL/well) was added and cultured at the same conditions for 4 h, DMSO (150 μL/well) was added, and the (570/630 nm) absorbance (A values) was measured by using micro-plate reader.

[1] = system: secretion of pyocyanin by Pseudomonas aeruginosa; assay: Measurement of pyocyanin; type: cell-based; conditions: 18 h culture, A520; Andro, AL-1 1 mM; Chuanhuning, Yanhuning, Lianbizhi 10 mM (FIG. 3)
Experimental: Pseudomonas aeruginosa was inoculated in LB medium, then cultured at a constant temperature of 37° C. in a shaker overnight. […] The supernatant was taken and extracted in turn with chloroform and 0.2 N HCl, and A520 values were measured (Zielinshi et al., Biol. Chem. 1991, 266, 9754-9763; May et al., Clin. Microbiology Rev. 1991, 4, 191-206).

B16F0 melanoma = conditions: orally 200 mg/kg, twice per day; cited from earlier work
MCF-7 breast cancer = conditions: 100 mg/kg, mice, hollow fiber system; cited from earlier work
Pseudomonas aeruginosa [2] = assay: Measurement of growth curve of Pseudomonas aeruginosa; type: cell-based; conditions: 1 mM (FIG. 2)
Experimental: Pseudomonas aeruginosa was inoculated in LB medium, and cultured at a constant temperature of 37° C. in a shaker overnight.

[3] = system: extracellular protease of Pseudomonas aeruginosa; assay: Measurement of extracellular protease; type: cell-based; conditions: azo-casein, A440; Andro, AL-1 1 mM; Chuanhuning, Yanhuning, Lianbizhi 10 mM (FIG. 4)
Experimental: Pseudomonas aeruginosa was inoculated in LB liquid, and cultured at a constant temperature of 37° C. in a shaker overnight. […] After the bacterial liquids were cultured simultaneously at 37° C. for 6 h and centrifuged, supernatant 100 μL was taken, azo-casein 5 mg was added, […] and CaCl2 10 mM were added, and then they were shaken for reaction at 37° C. for 6 h, and the reaction was terminated by adding EDTA-Na. The A440 values of the supernatants were measured (Zielinshi et al., Biol. Chem. 1991, 266, 9754-9763; May et al., Clin. Microbiology Rev. 1991, 4, 191-206).

[4] = system: Staphylococcus aureus wild type; assay: Inhibition zone test (holing method); type: cell-based; conditions: 37° C., 24 h; compounds 0.05 mg/well, streptomycin 0.15 mg/well
Experimental: (§1) After being cultured at 37° C. for 24 h, the sizes of inhibition zones were measured.

[5] = system: Staphylococcus aureus MRSA 5677; assay: Inhibition zone test (holing method); type: cell-based; conditions: 37° C., 24 h; compounds 0.05 mg/well, vancomycin 0.15 mg/well
Experimental: as §1

[6] = system: Staphylococcus aureus MRSA 5676; assay: Inhibition zone test (holing method); type: cell-based; conditions: 37° C., 24 h; compounds 0.05 mg/well, vancomycin 0.15 mg/well
Experimental: as §1

E. coli = assay: Inhibition zone test (holing method); type: cell-based; conditions: 37° C., 24 h; compounds 0.05 mg/well, gentamicin 0.10 mg/well
Experimental: as §1

Bacillus subtilis = assay: Inhibition zone test (holing method); type: cell-based; conditions: 37° C., 24 h; compounds 0.05 mg/well, streptomycin 0.15 mg/well
Experimental: as §1

Pseudomonas aeruginosa [7] = assay: Inhibition zone test (holing method); type: cell-based; conditions: 37° C., 24 h; compounds 0.05 mg/well, gentamicin 0.10 mg/well
Experimental: as §1

Candida albicans = assay: Inhibition zone test (holing method); type: cell-based; conditions: 37° C., 24 h; compounds 0.05 mg/well, nysfungin 0.10 mg/well
Experimental: as §1

macrophages = conditions: read-out: IC50, inhibition of cell division (C5α induced, macrophages); cited from earlier work
HT-29 human colon cancer = conditions: orally 200 mg/kg, twice per day; cited from earlier work
[8] = system: suspended Pseudomonas aeruginosa; assay: Experiment of combination with antibiotics; type: cell-based; conditions: Pseudomonas aeruginosa cultured 15 h, OD600; ciprofloxacin 0.017 μg/mL, erythromycin 3.75 μg/mL, Andro 350 μg/mL, AL-1 538 μg/mL (1 μmol/mL)
Pseudomonas aeruginosa [9] = assay: Atomic force microscope (AFM) experiment; type: cell-based; conditions: 1 mM, 15 h contact (FIG. 5)
Experimental: Pseudomonas aeruginosa was inoculated in LB liquid, shaken and cultured at a constant temperature of 37° C. overnight, and the bacterial liquid was centrifuged, washed with sterile physiological saline twice, and mixed with physiological saline to form a bacterial suspension having a turbidity of 0.5 McFarland Standard (bacterial number was about 5×10^8-9 CFU/mL). The bacterial suspension was diluted with physiological saline 50-times. […] After contacting with medicines for 15 h, 1 mL culture solution was added in a sterile centrifuge tube and centrifuged at 10,000×g for 5 min. The supernatant liquid was discarded, and the obtained bacterial sample was washed with double distilled water twice, and suspended in double distilled water. A small volume of Pseudomonas aeruginosa suspension was taken and dropped on a cover slip carefully. After water was dried under atmospheric condition, the bacteria were observed by CP-Research type atom force microscope (U.S.A., Thermomicroscopes Co.) ([…] et al., Antimicro. Chemother. 1994, 34, 679-685; […] et al., Antimicro. Agents Chemother. 2000, 44, 682-687; Nickel et al., Urology 1986, 135, 586-588).

MRSA5677 = assay: Test of minimal inhibitory concentration (MIC); type: cell-based, Staphylococcus aureus; conditions: two-fold dilution, 37° C., 24 h, absorbance 595 nm
[10] = system: Staphylococcus aureus wild type; assay: Test of minimal inhibitory concentration (MIC); type: cell-based; conditions: two-fold dilution, 37° C., 24 h, absorbance 595 nm
L1210 cells = type: cell-based; conditions: 10 μM, after 12 h
Experimental: The cells were cultured in an incubator at 37° C., 5% CO2 and saturated humidity. The culture medium was removed, the cells were washed with PBS twice, fixed at −20° C. overnight. Then the cells were centrifuged again, washed with PBS to remove ethanol, cultured with RNase A (200 μg/mL, Sigma) at 37° C. for 1 h, stained with PI (50 μg/mL, Sigma) in dark for 30 min, and detected by using a flow cytometer.

[11] = system: rats with STZ-induced diabetes mellitus; assay: Therapeutical effects on STZ-induced diabetes mellitus in rats
Experimental: 30 Female SD rats, 180-220 g, fasted for 16 h, were subjected to intraperitoneal injection of 60 mg/kg of STZ (purchased from Sigma Company). After 72 h, blood samples were collected from the rats by cutting their tails after fasting 16 h, and blood glucose values were measured by using a blood glucose analyzer (Johnson & Johnson Company). […] Animals were weighed, orbital bleeded, and the sera were separated. According to the instructions of kit (Zhejiang Dongou Biotechnology Co., Ltd.), the contents of triglyceride and total cholesterol were measured. […] The rats of vehicle group were treated with an equivalent volume of solvent (20% DMSO in H2O). After being fasted for 16 h, the rats were weighed, and bleeded for the measurement of blood glucose, triglyceride and total cholesterol. The obtained data were processed by using one-factor analysis of variance (One-way ANOVA) followed by Student's t-test.

MRSA5676 = assay: Test of minimal inhibitory concentration (MIC); type: cell-based, Staphylococcus aureus; conditions: two-fold dilution, 37° C., 24 h, absorbance 595 nm
[12] = system: BF of Pseudomonas aeruginosa; assay: Scanning electron microscopy (SEM) experiment, biofilm (BF) formation; type: cell-based; conditions: 1 mM; early BF 3rd day, mature BF 7th day (FIG. 6, 7)
Experimental: Pseudomonas aeruginosa was inoculated in LB liquid, and cultured at a constant temperature of 37° C. in a shaker overnight, and the bacterial liquid was centrifuged, washed with sterile physiological saline twice, and mixed with physiological saline to form a bacterial suspension having a turbidity of 0.5 McFarland Standard (bacterial number was about 5×10^8-9 CFU/mL). The bacterial suspension was diluted with physiological saline 50-times. A biofilm (BF) carrier was placed in a tube containing 2 mL of the bacterial liquid, and the culturing was conducted at 37° C. […] Medium was replaced every other two days. The formation of BF was observed by using Quanta 400 thermal field emission scanning electron microscope (FEI Company). The carrier adhered with BF was washed with sterile physiological saline to remove floating bacteria, fixed with 2.5% glutaral, immersed in pH 7.4 PBS for three times, dewatered in turn with 50%, 70%, 80% and 90% ethanol once, then dewatered with 100% ethanol twice and with tert-butanol twice, 5 min for each time, and lyophilized for 5 h. The surface of carrier was plated with gold under vacuum.

SMILES	inhibition of the secretion of pyocyanin [1]	inhibition of the growth of Pseudomonas aeruginosa (growth curve, A600) (Pseudomonas aeruginosa [2])	inhibition of the production/activity of extracellular protease [3]	Inhibition zone diameter, Staphylococcus aureus Wild type [4]	Inhibition zone diameter, Staphylococcus aureus MRSA 5677 [5]	Inhibition zone diameter, Staphylococcus aureus MRSA 5676 [6]	Inhibition zone diameter, E. coli (E. coli)	Inhibition zone diameter, Bacillus Subtilis (Bacillus subtilis)	Inhibition zone diameter, Pseudomonas aeruginosa (Pseudomonas aeruginosa [7])	Inhibition zone diameter, Candida albicans (Candida albicans)	also measured
C=C1CCC2[C@@](C)(CC[C@@H](O)[C@@]2(C)CO)C1C/C=C1/C(=O)OCC1O (stereo partly drawn) [Andro, Andrographolide]	AL-1>Andro>ANO	weak antibacterial activity	AL-1>ANO>Andro	^b (incompetence (inhibition zone diameter <4 mm))	^b (incompetence (inhibition zone diameter <4 mm))	^b (incompetence (inhibition zone diameter <4 mm))	^b (incompetence (inhibition zone diameter <4 mm))	^b (incompetence (inhibition zone diameter <4 mm))	^b (incompetence (inhibition zone diameter <4 mm))	^b (incompetence (inhibition zone diameter <4 mm))	IC50 (L1210 leukemia cells; L1210, 48 h): 28.7 ± 6.19 µM; inhibition of growth of melanoma (B16F0 melanoma): 39%; inhibition of growth (MCF-7 breast cancer): about 50%; IC50 (macrophages): 5.6 ± 0.7 µM; inhibition of growth of colon cancer (HT-29 human colon cancer): 52%
C=C1CCC2[C@](C)(CO)[C@H](O)CC[C@@]2(C)[C@@H]1C/C=C1/C(=O)OCC1OC(=O)CCCCC1CCSS1 (stereo partly drawn) [AL-1, 14-lipoyl-3,19-dihydroxy-andrographolide]	AL-1>Andro>ANO	significantly inhibited the growth of bacteria	AL-1>ANO>Andro	4.9 ± 0.81 mm	4.1 ± 0.77 mm	6.9 ± 0.80 mm	^b (incompetence (inhibition zone diameter <4 mm))	^b (incompetence (inhibition zone diameter <4 mm))	^b (incompetence (inhibition zone diameter <4 mm))	^b (incompetence (inhibition zone diameter <4 mm))	cytotoxicity relative to andrographolide (L1210 leukemia cells; L1210 cells): 3 times; IC50 (L1210 leukemia cells; L1210 cells, 48 h, MTT, read-out: IC50): 8.04 ± 1.92 µM; Survival Rate [8]: 84%; growth morphology of Pseudomonas aeruginosa under AFM (Pseudomonas aeruginosa [9]): did not form a confertim bacterial colony; MIC, MRSA5677 (MRSA5677): 1000; MIC, Wild type [10]: 1000; effect on cell cycle / apoptosis of L1210 cells (L1210 cells): arrest L1210 cells at G1 prophase; reduction of blood glucose level ([11]; AL-1 160 mg/kg, 7 days): about 66%; Blood glucose ([11]; Day 0, before treatment): 19.53 ± 1.90 mmol/L; Body weight ([11]; Day 0, before treatment): 214.33 ± 9.81 g; Total cholesterol ([11]; Day 0, before treatment): 3.39 ± 0.59 mmol/L; Total triglyceride ([11]; Day 0, before treatment): 6.28 ± 0.78 mmol/L; MIC, MRSA5676 (MRSA5676): 1000; formation of early and mature BF of Pseudomonas aeruginosa under SEM [12]: able to destroy the BF of Pseudomonas aeruginosa
